Laboratory results reported in patent publication US20030008024A1, “Therapeutic composition of herbal extracts and the uses thereof” (Advanced Herbal Therapeutics, Inc., priority 2001, published 2003).

How the values were obtained:
[1] = system: paw swelling induced by carrageenin; assay: Paw swelling induced by carrageenin in rat; assay type: in vivo, SD rats; details: 0.25 g/kg p.o. 3 days
Procedure: A total of 50 SD rats weighing 100-120g with equal sex distribution were randomly divided into 5 groups. The rats were treated p.o. with different doses of AHT-323, tragacanth, or aspirin once daily for 3 days. One hour later, rats were given subcutaneously injections with 0.05 ml of carrageenin (1%) in the right paw of each rat. The degree of paw swelling was measured using the drainage method before and 1, 3, 4, 5, and 6 h after injection of the carrageenin.

T cells of AA mice = T cells of AA mice (esterase stain, flow cytometry); assay type: in vivo, NIH mice; details: 0.012 g/kg
Procedure: A total of 60 NIH mice weighing 20±2 g were randomly divided into 6 groups, among which four groups were injected intradermially with 0.05 ml FCA to induce AA model mice. The negative control group was injected intradermially with 0.05ml saline. The rats in AHT-323 test groups were administrated orally with AHT-323 once daily for consecutive five days. Five days later, peripheral blood was drawn from mice in all groups and stained with esterase. The percent of T cells (positive esterase stained cells) was calculated.
The above mice were anesthetized and spleens were removed and made into splenocytes suspension. CD4^+ T cells and CD8^+ T cells were assayed with flow cytometry and CD4^+/CD8^+ was calculated.

[2] = system: adjuvant arthritis (AA) rats; assay: Therapeutic effect on adjuvant arthritis rats (swelling); assay type: in vivo, SD rats; details: 0.01 g/kg
Procedure: (§1) In the study, 60 male SD rats weighing 180-220 g were used and randomly divided into 5 groups, including three test groups, one negative and one positive control groups. The rats were given p.o. three different dosages of AHT-323, tragacanth, or prednisone, respectively, once daily for 4 consecutive weeks. 0.1 ml of Freund's Complete Adjuvant (FCA) was also injected intradermally into the plantar of left hind paw of rats […]. Each day, the maximal circumference of both left and right paw and ankle joint were measured, and the swelling degrees (mm) were calculated to determine the AHT-323 on both primary and secondary injury. The primary injury occurs at the homolateral joints of the adjuvant injection and is resulted from direct, non-specific inflammatory reaction of the body to adjuvant. Whereas the secondary injury occurs at the contralateral joints of the adjuvant injection in about two weeks after adjuvant injection and is related to auto-immune responses induced by adjuvant injection. The pathological changes of human rheumatoid arthritis is similar to that of the secondary injury in AA rats.
Totals of 50 male SD rats were divided into 5 groups with the same treatment as experiments described in section 3.3.1 except that the AHT-323 was given p.o. from d13˜d28 once daily for 2 weeks, (from the thirteenth day after injection of Freund's Complete Adjuvant).

[3] = system: adjuvant arthritis (AA) rats; assay: Prophylactic effect on rat adjuvant arthritis (paw and ankle swelling); assay type: in vivo, SD rats; details: 0.01 g/kg p.o.
Procedure: The study was conducted in adjuvant arthritis (AA) rats, an experimental model for human rheumatoid arthritis.
as §1

cotton granuloma = assay: Cotton granuloma and organ weights; assay type: in vivo, SD rats; details: 0.05 g/kg p.o. once daily 7 days
Procedure: 150 SD rats weighing 150-180 g with equal sex distribution were randomly divided into 15 groups. After light anesthesia with ether, an aseptic cotton ball (10 mg) was implanted into each armpit. On that day, rats were administered p.o. with different doses of AHT-323 or DXM once daily for 7 days. Twenty four hours after the last drug administration, the rats were sacrificed and the cotton balled granuloma were removed. The wet and dry weight of the granuloma, and other organs were obtained.

peritoneal macrophage = assay: CRBC phagocytosis of peritoneal macrophage of mice; assay type: in vivo; details: 0.005 g/kg p.o. once daily 7 days
Procedure: Totals of 50 NIH mice weighing 18-22 g with equal sex distribution were randomly divided into 5 groups. The mice were treated p.o. with different doses of AHT-323 or other positive control drug once daily for 7 days. 1 h after the last dose, mice were injected i.p. with 0.2 ml […] of chick (10%). 4 h later, mice were sacrificed and the peritoneal fluid was obtained. Under microscope, the amount of macrophage that phagocytosed CRBC and the amount of CRBC phagocytosed by each macrophage were counted.

WBC of pleura = assay: Migration of inflammatory cells of pleura (Fucus siliquosus glue); assay type: in vivo, NIH mice; details: 0.05 g/kg
Procedure: A total of 50 NIH mice were randomly divided into five groups. 0.5% Evans blue saline was injected into caudal vein at 0.1 ml/10 g body weight. Then mice were lightly anesthetized with ether and injected with 0.03 ml of Fucus siliquosus glue into right thoracic cavity to induce inflammation. 4 h and 32 h after inflammation induction, the mice were sacrificed and 2 ml of thoracic cavity wash liquid was collected and used to count the WBC and measure the optical density (OD) at 600 nm. […] The regression equation on 4 h was y=44.13-2.01x, r=0.9625.

[4] = system: ear swelling induced by croton oil; assay: Ear swelling induced by croton oil; assay type: in vivo, NIH mice; details: 0.003 g/kg p.o. once daily 3 days
Procedure: A total of 60 NIH mice weighing 18-22 g with equal sex distribution were randomly divided into 6 groups. The mice were treated p.o. with different doses of AHT-323, tragacanth, or DXM once daily for 3 days. One hour after the last administration, 0.02 ml croton oil (2%) was pasted around the left auricle. Four hours later, mice were sacrificed by dislocating cervical vertebrae. The right and left ears were cut off and weighed to get the differences in the degree of ear swelling.

CC(=O)Oc1ccccc1C(=O)O [Aspirin, aspirin]
Paw swelling rate (%) ([1]; 1 h): 6.3 ± 4.1 %
Paw swelling rate (%) ([1]; 3 h): 11.1 ± 6.3 %
Paw swelling rate (%) ([1]; 4 h): 17.9 ± 7.6 %
Paw swelling rate (%) ([1]; 5 h): 18.1 ± 7.0 %
Paw swelling rate (%) ([1]; 6 h): 20.6 ± 6.0 %

CC(=O)OC[C@]12[C@H](OC(C)=O)[C@H](OC(C)=O)[C@@H]3[C@@H](OC(C)=O)[C@@]14O[C@@]3(C)COC(=O)c1cccnc1CCC(C)(O)C(=O)O[C@@H]([C@H](OC(=O)c1ccccc1)[C@@H]2OC(C)=O)[C@]4(C)O (stereo partly shown) [Wilfordine]
CD4^+/CD8^+ (T cells of AA mice): 1.70 ± 0.03
ANAE^+ (%) (T cells of AA mice; peripheral blood): 48.88 ± 2.89%
CD4^+ (%) (T cells of AA mice; splenocytes): 27.88 ± 1.99 %
CD8^+ (%) (T cells of AA mice; splenocytes): 16.33 ± 1.31 %

C[C@]12C=CC(=O)C=C1CC[C@@H]1[C@@H]2C(=O)C[C@@]2(C)[C@H]1CC[C@]2(O)C(=O)CO [Prednisone, prednisone]
Swelling degree ([2]; primary injury, therapeutic (p.o. d13˜d28), D1): 1.78 ± 0.51 cm
Swelling degree ([2]; primary injury, therapeutic (p.o. d13˜d28), d2): 1.70 ± 0.51 cm
Swelling degree ([2]; primary injury, therapeutic (p.o. d13˜d28), d4): 1.63 ± 0.50 cm
Swelling degree ([2]; primary injury, therapeutic (p.o. d13˜d28), d6): 1.58 ± 0.50 cm
Swelling degree ([2]; primary injury, therapeutic, 2nd block col 1 (day not given)): 1.27 ± 0.46 cm
Swelling degree ([2]; primary injury, therapeutic, 2nd block col 2 (day not given)): 1.09 ± 0.54 cm
Swelling degree ([2]; primary injury, therapeutic, 2nd block col 3 (day not given)): 0.94 ± 0.50 cm
Swelling degree ([2]; primary injury, therapeutic, 2nd block col 4 (day not given)): 0.94 ± 0.42 cm
Swelling degree ([2]; secondary injury, therapeutic (p.o. d13˜d28), D1): 1.08 ± 00.41 cm
Swelling degree ([2]; secondary injury, therapeutic (p.o. d13˜d28), d2): 1.18 ± 00.44 cm
Swelling degree ([2]; secondary injury, therapeutic (p.o. d13˜d28), d4): 1.23 ± 00.42 cm
Swelling degree ([2]; secondary injury, therapeutic (p.o. d13˜d28), d6): 1.19 ± 00.38 cm
Swelling degree ([2]; secondary injury, therapeutic, 2nd block col 1 (day not given)): 0.88 ± 00.47 cm
Swelling degree ([2]; secondary injury, therapeutic, 2nd block col 2 (day not given)): 0.95 ± 00.43 cm
Swelling degree ([2]; secondary injury, therapeutic, 2nd block col 3 (day not given)): 0.82 ± 00.48 cm
Swelling degree ([2]; secondary injury, therapeutic, 2nd block col 4 (day not given)): 0.75 ± 00.37 cm
Swelling degree ([3]; primary injury, 2nd block col 1 (day not given)): 1.18 ± 0.76 cm
Swelling degree ([3]; primary injury, 2nd block col 2 (day not given)): 1.03 ± 0.67 cm
Swelling degree ([3]; primary injury, 2nd block col 3 (day not given)): 1.05 ± 0.69 cm
Swelling degree ([3]; primary injury, 2nd block col 4 (day not given)): 0.90 ± 0.64 cm
Swelling degree ([3]; primary injury, 2nd block col 5 (day not given)): 0.86 ± 0.65 cm
Swelling degree ([3]; primary injury, 2nd block col 6 (day not given)): 0.85 ± 0.59 cm
Swelling degree ([3]; primary injury, d1): 0.64 ± 0.14 cm
Swelling degree ([3]; primary injury, d2): 0.64 ± 0.16 cm
Swelling degree ([3]; primary injury, d3): 0.50 ± 0.26 cm
Swelling degree ([3]; primary injury, d9): 0.46 ± 0.25 cm
Swelling degree ([3]; primary injury, d12): 0.72 ± 0.46 cm
Swelling degree ([3]; primary injury, d14): 0.87 ± 0.46 cm
Swelling degree ([3]; primary injury, d16): 1.28 ± 0.69 cm
Swelling degree ([3]; secondary injury, 2nd block col 1 (day not given)): 0.78 ± 0.70 cm
Swelling degree ([3]; secondary injury, 2nd block col 2 (day not given)): 0.72 ± 0.71 cm
Swelling degree ([3]; secondary injury, 2nd block col 3 (day not given)): 0.67 ± 0.64 cm
Swelling degree ([3]; secondary injury, 2nd block col 4 (day not given)): 0.62 ± 0.61 cm
Swelling degree ([3]; secondary injury, 2nd block col 5 (day not given)): 0.65 ± 0.64 cm
Swelling degree ([3]; secondary injury, D9): 0.038 ± 0.048 cm
Swelling degree ([3]; secondary injury, d2): 0.016 ± 0.039 cm
Swelling degree ([3]; secondary injury, d12): 0.14 ± 0.14 cm
Swelling degree ([3]; secondary injury, d14): 0.38 ± 0.39 cm
Swelling degree ([3]; secondary injury, d16): 0.92 ± 0.62 cm
Swelling degree ([3]; secondary injury, d18): 0.78 ± 0.71 cm

C[C@@H]1C[C@H]2[C@@H]3CCC4=CC(=O)C=C[C@]4(C)[C@@]3(F)[C@@H](O)C[C@]2(C)[C@@]1(O)C(=O)CO [DXM, dexamethasone]
Granuloma Wt. Dry Wt. (cotton granuloma): 77 ± 17 mg/100 g
Granuloma Wt. Wet Wt. (cotton granuloma): 346 ± 92 mg/100 g
Weight of organs: Adrenal (cotton granuloma): 17 ± 5 mg/100 g
Weight of organs: Spleen (cotton granuloma): 412 ± 173 mg/100 g
Weight of organs: Thymus (cotton granuloma): 38 ± 13 mg/100 g
Weight of organs: uterus (cotton granuloma): 126 ± 33 mg/100 g
Phagocytic index (peritoneal macrophage): 1.10 ± 0.18
Phagocytic percent (%) (peritoneal macrophage): 8.33 ± 10.13 %
WBC count (WBC of pleura; 4 h after inflammation induction): 12.7 ± 10.2
WBC count (WBC of pleura; 32 h): 4.4 ± 4.0
Swelling degree [4]: 14.13 ± 5.75 mg
inhibition at 3 mg/kg ([4]; Mus musculus, po, 72 h, read-out: Inhibition rate): 68.2%
